The results in this text go back to US20210179714A1, “Inhibition of CTLA-4 and/or PD-1 For Regulation of T Cells” (MEMORIAL SLOAN KETTERING CANCER CENTER, priority 2017, published 2021).

The test system of assay [1] is 4PD1^hi. Nature of the assay: FACS monitoring of circulating 4PD1hi in advanced NSCLC patients during immune checkpoint blockade. Type of assay: in vivo, human. How it is done: To evaluate the role of 4PD1^hi in the development of anti-tumor immune responses in vivo, we monitored this cell population in cancer patients treated with immune checkpoint blockade. To detect human PD-1, we employed a mAb whose binding is not cross-blocked by the therapeutic αPD-1 Abs nivolumab or pembrolizumab (FIG. 7A). […] We thus explored in mice the capability of αCTLA-4 monotherapy to increase 4PD1^hi in a dose-dependent manner, by treating with 100 μg (standard dose in mice) or a higher amount (300 μg) of αCTLA-4 (FIG. 8B). […] Furthermore, in different mouse strains (C57BL/6J and Balb/c) we observed that the presence of tumor contributes to anti-CTLA-4-mediated induction of 4PD1^hi.
(§1) All patients and healthy donors signed an approved informed consent before providing tissue samples. Patient samples were collected on a tissue-collection protocol approved by the MSKCC Institutional Review Board and processed as described (Holmgaard et al., 2015).
Tumors were dissociated after 30 min incubation with Liberase TL and DNAse I (Roche) to obtain single-cell suspensions. When tumor mass exceeded 0.1 gr, immune-cell infiltrates were enriched by Percoll (GE Healthcare) gradient centrifugation. Cells from tumor-draining lymph nodes and spleens were prepared by mechanical dissociation on 40 μM filters and RBC lysis (ACK buffer, Lonza). […]

For assay [2], the system named is 4PD1^hi. Nature of the assay: FACS monitoring of circulating 4PD1hi / CD4+ T-cell subsets in advanced melanoma patients during immune checkpoint blockade. In kind it is in vivo, human. The conditions noted are these: for circulating 4PD1hi frequency: metastatic melanoma patients, ipilimumab n=47, pembrolizumab n=52, relative to baseline.
Description: We further confirmed the results achieved in NSCLC patients in larger cohorts of metastatic melanoma patients treated with ipilimumab (FIG. 8C, αCTLA-4, n=47) or the αPD-1 pembrolizumab (FIG. 8C, n=52, 50/52 upon relapse on ipilimumab). αCTLA-4 increased circulating 4PD1^hi, while administration of αPD-1 reduced their frequency (FIG. 8C). We further substantiated the capability of αPD-1 (pembrolizumab) to down-regulate 4PD1hi in an independent cohort of melanoma patients (Huang et al., 2017) (FIG. 8F).
as §1
Tumors were dissociated after 30 min incubation with Liberase TL and DNAse I (Roche) to obtain single-cell suspensions. When tumor mass exceeded 0.1 gr, immune-cell infiltrates were enriched by Percoll (GE Healthcare) gradient centrifugation. Cells from tumor-draining lymph nodes and spleens were prepared by mechanical dissociation on 40 μM filters and RBC lysis (ACK buffer, Lonza). Mouse PB was collected by retro-orbital puncture and RBC were lysed with Pharm Lyse Buffer (BD Bioscences). Surface staining of mouse cells was performed after 15 min pre-incubation with anti-mouse CD16/CD32 Ab (clone 2.4G2; BD Biosciences) to block FcγR binding, with panels of appropriately diluted fluorochrome-conjugated Abs (from BD Biosciences, eBioscience or Invitrogen) against the following mouse proteins in different combinations: CD45 (clone 30-F11), CD45.1 (clone A20), CD4 (clone RM4-5), CD8a (clone 5H10), Thy1.1 (clone OX-7), B220 (RA3-6B2), CD19 (clone 1D3), PD-1 (RMP1-30), CD44 (clone IM7), CD62L (clone MEL-14), CD25 (clone PC61.5), CD86 (clone GL-1), I-A/I-E (clone M5/114.15.2), PD-L1 (clone MIH5), ICOS (clone C398.4A), CXCR5 (biotin-conjugated clone 2G8, followed by PE-/APC-labeled streptavidin staining), and a eFluor506 fixable viability dye. For intracellular staining, mouse cells were fixed and permeabilized (Foxp3 fixation/permeabilization buffer, eBioscience) and incubated with appropriately diluted PECF594-labeled anti-Bcl6 (clone K112-91, BD Biosciences), PECy7-labeled anti-Ki67 (clone B56, BD Biosciences), and FITC-labeled anti-Foxp3 (clone FJK-16s, eBioscience) Abs. Surface staining of human cells was performed in the presence of FcγR Blocking reagent (Miltenyi Biotec) with proper dilutions of fluorochrome-conjugated Abs (from BD Biosciences, eBioscience or Tonbo) against the following human proteins in different combinations: CD45 (clone HI30), CD45RA (clone HI100), CD4 (clone RPA-T4), PD-1 (clone MIH4 or J105 in anti-PD-1-treatment naïve samples), CD25 (clone MA251), ICOS (clone ISA-3), CXCR5 (clone RF8B2), CD19 (clone HIB19), and CD86 (clone FUN-1), and a eFluor506 fixable viability dye. For intracellular staining, human cells were fixed and permeabilized (Foxp3 fixation/permeabilization buffer, eBioscience) and then incubated with appropriately diluted eFuor450-labeled anti-Foxp3 (clone PCH101, eBiosciences), PECF594-labeled anti-Bcl6 (clone K112-91), and APC-labeled anti-CTLA-4 (clone BNI3, BD Biosciences) Abs.

For a further assay, the system named is circulating B cells. As to the kind of experiment: CD86 expression on circulating B cells of metastatic melanoma patients. In kind it is in vivo, human. As to conditions: ipilimumab 3 mg/kg q3 wks, n=16. On the procedure:
as §1
(§2) Tumors were dissociated after 30 min incubation with Liberase TL and DNAse I (Roche) to obtain single-cell suspensions. When tumor mass exceeded 0.1 gr, immune-cell infiltrates were enriched by Percoll (GE Healthcare) gradient centrifugation. Cells from tumor-draining lymph nodes and spleens were prepared by mechanical dissociation on 40 μM filters and RBC lysis (ACK buffer, Lonza). Mouse PB was collected by retro-orbital puncture and RBC were lysed with Pharm Lyse Buffer (BD Bioscences). […]

Assay [3] deals with 4PD1^hi. As to the kind of experiment: 4PD1hi and Treg frequency/phenotype in tumor-bearing mice under treatment (FACS, immunofluorescence). Type of assay: in vivo, mouse. On the procedure:
(§3) B16 melanoma cells were implanted intradermally (10^5 cells, for tumor-growth and survival analyses) or subcutaneously in matrigel (Matrigel Matrix Growth Factor Reduced, Becton Dickinson) (2×10^5 cells, for immune-cell infiltrate analyses) in C57BL/6J mice. Vaccination with VRP-TRP2 (AlphaVax Inc.) was performed by injection of 1×10^6 virus-like replicon particles (VRPs) (Zappasodi and Merghoub, 2015) expressing mouse TRP2 into the plantar surface of each footpad for 3 times 1 week apart, starting 3 days after tumor implantation (Avogadri et al., 2014). Treatment with anti-CTLA-4 (clone 9D9, 100 μg or 300 μg/injection), anti-PD-1 (clone RMP1-14, 250 μg/injection), or the matched isotype IgGs (BioXcell) was started 3-4 (optimal treatment) or 6-7 days (suboptimal treatment) after tumor implantation for respectively 5 or 4 intraperitoneal (i.p.) administrations 3 days apart. Immunization with sRBC was performed i.p. with 200 μl 10% volume/volume sRBC solution (Innovative Research). The Bcl6 inhibitor 79.6 (Calbiochem) was administered daily i.p. in 10% DMSO at 50 mg/kg (Cerchietti et al., 2010). TUBO breast carcinoma cells were implanted subcutaneously in Balb/c mice (10^6 cells/mouse) and anti-CTLA-4 treatment was started 10 days after. Animals were monitored at least twice a week and were considered tumor-free until intradermal lesions were palpable.
as §2

The subject of the next assay is B16 melanoma. Nature of the assay: Tumor growth and tumor-free survival in tumor-bearing mice. Type of assay: in vivo, mouse. On the procedure: as §3

For the molecule nivolumab, in the assay on 4PD1^hi [1] (metastatic NSCLC patients, nivolumab monotherapy (nivo3, 3 mg/kg q2 wks, n=10), relative to baseline), the “peripheral 4PD1hi frequency” value was “reduced”.
Take ipilimumab: in the assay with 4PD1^hi [1] (NSCLC patients, ipilimumab 1 or 3 mg/kg added to nivolumab 1 mg/kg, compared with nivolumab monotherapy), the “circulating 4PD1hi” value was “proportional increases”. Further, the “ICOS expression in CD4+ T cell subsets” value in the assay on 4PD1^hi [2] (melanoma cohort, 4PD1neg, Tregs and 4PD1hi) was “induced ICOS expression”. Moreover, the “circulating 4PD1hi frequency” value in the assay with 4PD1^hi [2] is reported as “increased”. The “CD86 on circulating B cells” value with circulating B cells is recorded as “up-regulation”.
Regarding `O=C(O)CC(C(=O)O)n1c(O)c(C2=c3cc(Br)ccc3=NC2=O)sc1=S` (stereo not shown) [Bcl6 inhibitor], in the assay on 4PD1^hi [3] (Bcl6 inhibition), the “intra-tumor Tregs” value was “favored intra-tumor Treg expansion” and the “total CD4+ or CD8+ T-cell intra-tumor infiltration” value is “did not find significant increases”. The “4PD1hi in the periphery and at the tumor site” value in the assay with 4PD1^hi [3] (Bcl6 inhibitor 50 mg/kg daily i.p.) is reported as “effective in controlling”. In addition, the “anti-tumor activity in RAG KO mice” value in the assay with B16 melanoma (RAG KO mice lacking mature T and B cells, Bcl6 inhibition) is reported as “completely lost”. The tumor growth result in the assay on B16 melanoma (WT mice, Bcl6 inhibitor, also in the context of CTLA-4 blockade and high baseline 4PD1hi) is “modestly (but significantly) delayed tumor growth”.
On to pembrolizumab, for which, in the assay on 4PD1^hi [2] (independent cohort of melanoma patients, pembrolizumab 2 mg/kg q3 wks, n=18), the “4PD1hi frequency, independent cohort” value is listed as “down-regulate”. Also, the “dose dependence of 4PD1hi down-regulation” value in the assay on 4PD1^hi [2] (melanoma patients, higher dose of pembrolizumab (2 mg/kg or 10 mg/kg)) is listed as “more efficient at down-regulating”. Further, the “circulating 4PD1hi frequency” value in the assay with 4PD1^hi [2] is listed as “reduced”.
